Structures are written as SMILES.

The record followed here is patent US11945806B2, “Stabilization of amyloidogenic immunoglobulin light chains” (The Scripps Research Institute, priority 2019, dated 2024).

In this test the target is WIL-FL (Homo sapiens, UniProt P01721). Description: Unlabeled LC Protease Sensitivity Assay (proteinase K). The conditions noted are these: small molecule 10 μM, WIL-FL 5 μM, proteinase K 50 nM, 2 hours at 37° C. Format: biochemical. In a few lines:
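WIL-FL light chain (5 μM) in PBS pH 7.4 + 0.02% Pluronic F-127 digested with proteinase K (50 nM) for 2 h at 37 °C with 10 μM compound (1% DMSO). Intact WIL-FL quantified by size-exclusion UPLC (A280). Fold protection = (A_compound−A_vehicle)/(A_no_protease−A_vehicle) from peak areas.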
In the case of `C#CCN(CCC=C)c1ccc2c(C)cc(=O)oc2c1` [Compound 263, 7-(but-3-en-1-yl(prop-2-yn-1-yl)amino)-4-methyl-2H-chromen-2-one], the “Protection (fold protection of LC from protease)” value was “A (A < 0.3))”.

As to `C#CCN(CCCF)c1ccc2c(C)cc(=O)oc2c1` [Compound 264, 7-((3-fluoropropyl)(prop-2-yn-1-yl)amino)-4-methyl-2H-chromen-2-one], the “Protection (fold protection of LC from protease)” value is “A (A < 0.3))”.

In the case of `Cc1cc(=O)oc2cc(NCCC(F)(F)F)ccc12` [Compound 265, 4-methyl-7-((3,3,3-trifluoropropyl)amino)-2H-chromen-2-one], the “Protection (fold protection of LC from protease)” value was “A (A < 0.3))”.

As for `Cc1cc(=O)oc2cc(N(C)C)ccc12` [Compound 266, 7-(dimethylamino)-4-methyl-2H-chromen-2-one], the “Protection (fold protection of LC from protease)” value is on record as “A (A < 0.3))”.

For `C#CCNC(=O)c1ccc2c(C)cc(=O)oc2c1` [Compound 267, 4-methyl-2-oxo-N-(prop-2-yn-1-yl)-2H-chromene-7-carboxamide], the “Protection (fold protection of LC from protease)” value is reported as “A (A < 0.3))”.

For `CCN(C)c1ccc2c(C)cc(=O)oc2c1` [Compound 268, 7-(ethyl(methyl)amino)-4-methyl-2H-chromen-2-one], the “Protection (fold protection of LC from protease)” value is listed as “A (A < 0.3))”.

As to `Cc1cc(=O)oc2cc(NCC#N)ccc12` [Compound 269, 2-((4-methyl-2-oxo-2H-chromen-7-yl)amino)acetonitrile], the “Protection (fold protection of LC from protease)” value is “A (A < 0.3))”.

As for `CCNc1ccc2c(C)cc(=O)oc2c1` [Compound 270, 7-(ethylamino)-4-methyl-2H-chromen-2-one], the “Protection (fold protection of LC from protease)” value was “A (A < 0.3))”.

Regarding `C#CCN(CC)c1ccc2c(C)cc(=O)oc2c1` [Compound 271, 7-(ethyl(prop-2-yn-1-yl)amino)-4-methyl-2H-chromen-2-one], the “Protection (fold protection of LC from protease)” value is reported as “A (A < 0.3))”.

Consider `CCN(CC#N)c1ccc2c(C)cc(=O)oc2c1` [Compound 272, 2-(ethyl(4-methyl-2-oxo-2H-chromen-7-yl)amino)acetonitrile], for which the “Protection (fold protection of LC from protease)” value is reported as “A (A < 0.3))”.

As to `CCN(CCF)c1ccc2c(C)cc(=O)oc2c1` [Compound 273, 7-(ethyl(2-fluoroethyl)amino)-4-methyl-2H-chromen-2-one], the “Protection (fold protection of LC from protease)” value is reported as “A (A < 0.3))”.

`CCN(c1ccc2c(C)cc(=O)oc2c1)C(C)C` [Compound 274, 7-(ethyl(isopropyl)amino)-4-methyl-2H-chromen-2-one]: the “Protection (fold protection of LC from protease)” value was “A (A < 0.3))”.

Consider `CCCN(CC)c1ccc2c(C)cc(=O)oc2c1` [Compound 275, 7-(ethyl(propyl)amino)-4-methyl-2H-chromen-2-one], for which the “Protection (fold protection of LC from protease)” value was “A (A < 0.3))”.

Take `CCN(CC)c1ccc2c(C)c(CCNC(=O)NCc3ccccn3)c(=O)oc2c1` [Compound 276, 1-(2-(7-(diethylamino)-4-methyl-2-oxo-2H-chromen-3-yl)ethyl)-3-(pyridin-2-ylmethyl)urea]: the “Protection (fold protection of LC from protease)” value is given as “A (A < 0.3))”.

With `CCN(CC)c1ccc2c(C)c(CCNC(=O)NCc3ccncc3)c(=O)oc2c1` [Compound 277, 1-(2-(7-(diethylamino)-4-methyl-2-oxo-2H-chromen-3-yl)ethyl)-3-(pyridin-4-ylmethyl)urea], the “Protection (fold protection of LC from protease)” value is listed as “B (3 ≤ B < 0.6)”.

For `CCN(CC)c1ccc2c(C)c(CCNC(=O)NCc3ccccc3)c(=O)oc2c1` [Compound 278, 1-benzyl-3-(2-(7-(diethylamino)-4-methyl-2-oxo-2H-chromen-3-yl)ethyl)urea], the “Protection (fold protection of LC from protease)” value is “C (C ≥ 0.6)”.

Take `CCN(CC)c1ccc2c(C)c(CCNC(=O)NCc3ccc4[nH]ccc4c3)c(=O)oc2c1` [Compound 279, 1-((1H-indol-5-yl)methyl)-3-(2-(7-(diethylamino)-4-methyl-2-oxo-2H-chromen-3-yl)ethyl)urea]: the “Protection (fold protection of LC from protease)” value is given as “A (A < 0.3))”.

Regarding `CCN(CC)c1ccc2c(C)c(CCNC(=O)NCCc3ccc(O)cc3)c(=O)oc2c1` [Compound 280, 1-(2-(7-(diethylamino)-4-methyl-2-oxo-2H-chromen-3-yl)ethyl)-3-(4-hydroxyphenethyl)urea], the “Protection (fold protection of LC from protease)” value is “B (3 ≤ B < 0.6)”.

With `CCN(CC)c1ccc2c(C)c(CCNC(=O)NCCc3cnc[nH]3)c(=O)oc2c1` [Compound 281, 1-(2-(1H-imidazol-5-yl)ethyl)-3-(2-(7-(diethylamino)-4-methyl-2-oxo-2H-chromen-3-yl)ethyl)urea], the “Protection (fold protection of LC from protease)” value is “B (3 ≤ B < 0.6)”.

Turning to `CCN(CC)c1ccc2c(C)c(CCNC(=O)NCc3cccc(Cl)n3)c(=O)oc2c1` [Compound 282, 1-((6-chloropyridin-2-yl)methyl)-3-(2-(7-(diethylamino)-4-methyl-2-oxo-2H-chromen-3-yl)ethyl)urea], the “Protection (fold protection of LC from protease)” value is reported as “B (3 ≤ B < 0.6)”.

As to `CCN(CC)c1ccc2c(C)c(CCNC(=O)NCc3ccc(-c4ccccc4)cc3)c(=O)oc2c1` [Compound 283, 1-([1,1′-biphenyl]-4-ylmethyl)-3-(2-(7-(diethylamino)-4-methyl-2-oxo-2H-chromen-3-yl)ethyl)urea], the “Protection (fold protection of LC from protease)” value was “A (A < 0.3))”.

With `CCN(CC)c1ccc2c(C)c(CCNC(=O)NCc3cccc(-c4ccccc4)c3)c(=O)oc2c1` [Compound 284, 1-([1,1′-biphenyl]-3-ylmethyl)-3-(2-(7-(diethylamino)-4-methyl-2-oxo-2H-chromen-3-yl)ethyl)urea], the “Protection (fold protection of LC from protease)” value is recorded as “B (3 ≤ B < 0.6)”.

Regarding `CCN(CC)c1ccc2c(C)c(CCNC(=O)NCc3cccc4ccccc34)c(=O)oc2c1` [Compound 285, 1-(2-(7-(diethylamino)-4-methyl-2-oxo-2H-chromen-3-yl)ethyl)-3-(naphthalen-1-ylmethyl)urea], the “Protection (fold protection of LC from protease)” value is reported as “A (A < 0.3))”.

As to `CCN(CC)c1ccc2c(C)c(CCNC(=O)NCc3ccc(=O)[nH]c3)c(=O)oc2c1` [Compound 286, 1-(2-(7-(diethylamino)-4-methyl-2-oxo-2H-chromen-3-yl)ethyl)-3-((6-oxo-1,6-dihydropyridin-3-yl)methyl)urea], the “Protection (fold protection of LC from protease)” value was “A (A < 0.3))”.

As to `CCN(CC)c1ccc2c(C)c(CCNC(=O)NCc3ccnc4ccccc34)c(=O)oc2c1` [Compound 287, 1-(2-(7-(diethylamino)-4-methyl-2-oxo-2H-chromen-3-yl)ethyl)-3-(quinolin-4-ylmethyl)urea], the “Protection (fold protection of LC from protease)” value is on record as “A (A < 0.3))”.

In the case of `CCN(CC)c1ccc2c(C)c(CCNC(=O)NCc3cnc4ccccc4c3)c(=O)oc2c1` [Compound 288, 1-(2-(7-(diethylamino)-4-methyl-2-oxo-2H-chromen-3-yl)ethyl)-3-(quinolin-3-ylmethyl)urea], the “Protection (fold protection of LC from protease)” value is on record as “B (3 ≤ B < 0.6)”.

`CCN(CC)c1ccc2c(C)c(CCNC(=O)NCc3cncc4ccccc34)c(=O)oc2c1` [Compound 289, 1-(2-(7-(diethylamino)-4-methyl-2-oxo-2H-chromen-3-yl)ethyl)-3-(isoquinolin-4-ylmethyl)urea]: the “Protection (fold protection of LC from protease)” value is “C (C ≥ 0.6)”.

For `CCN(CC)c1ccc2c(C)c(CCNC(=O)NCc3nccc4ccccc34)c(=O)oc2c1` [Compound 290, 1-(2-(7-(diethylamino)-4-methyl-2-oxo-2H-chromen-3-yl)ethyl)-3-(isoquinolin-1-ylmethyl)urea], the “Protection (fold protection of LC from protease)” value is “C (C ≥ 0.6)”.

For the molecule `CCN(CC)c1ccc2c(C)c(CCNC(=O)NCc3cccc(-c4c[nH]cn4)c3)c(=O)oc2c1` [Compound 291, 1-(3-(1H-imidazol-4-yl)benzyl)-3-(2-(7-(diethylamino)-4-methyl-2-oxo-2H-chromen-3-yl)ethyl)urea], the “Protection (fold protection of LC from protease)” value is listed as “C (C ≥ 0.6)”.

Take `CCN(CC)c1ccc2c(C)c(CCNC(=O)NCc3ccc4ccccc4c3)c(=O)oc2c1` [Compound 292, 1-(2-(7-(diethylamino)-4-methyl-2-oxo-2H-chromen-3-yl)ethyl)-3-(naphthalen-2-ylmethyl)urea]: the “Protection (fold protection of LC from protease)” value is “C (C ≥ 0.6)”.

As to `CCN(CC)c1ccc2c(C)c(CCNC(=O)NCc3ccc4ccccc4n3)c(=O)oc2c1` [Compound 293, 1-(2-(7-(diethylamino)-4-methyl-2-oxo-2H-chromen-3-yl)ethyl)-3-(quinolin-2-ylmethyl)urea], the “Protection (fold protection of LC from protease)” value is reported as “B (3 ≤ B < 0.6)”.

Regarding `CCN(CC)c1ccc2c(C)c(CCNC(=O)NCc3ccncn3)c(=O)oc2c1` [Compound 294, 1-(2-(7-(diethylamino)-4-methyl-2-oxo-2H-chromen-3-yl)ethyl)-3-(pyrimidin-4-ylmethyl)urea], the “Protection (fold protection of LC from protease)” value is on record as “A (A < 0.3))”.

Consider `CCN(CC)c1ccc2c(C)c(CCNC(=O)NCc3cc4ccccc4cn3)c(=O)oc2c1` [Compound 295, 1-(2-(7-(diethylamino)-4-methyl-2-oxo-2H-chromen-3-yl)ethyl)-3-(isoquinolin-3-ylmethyl)urea], for which the “Protection (fold protection of LC from protease)” value was “B (3 ≤ B < 0.6)”.

`CCN(CC)c1ccc2c(C)c(CCNC(=O)NCc3ccc4c(=O)[nH]ccc4c3)c(=O)oc2c1` [Compound 296, 1-(2-(7-(diethylamino)-4-methyl-2-oxo-2H-chromen-3-yl)ethyl)-3-((1-oxo-1,2-dihydroisoquinolin-6-yl)methyl)urea]: the “Protection (fold protection of LC from protease)” value was “B (3 ≤ B < 0.6)”.

As to `CCN(CC)c1ccc2c(C)c(CCNC(=O)NCc3cc(F)cc(C(=O)O)c3)c(=O)oc2c1` [Compound 297, 3-((3-(2-(7-(diethylamino)-4-methyl-2-oxo-2H-chromen-3-yl)ethyl)ureido)methyl)-5-fluorobenzoic acid], the “Protection (fold protection of LC from protease)” value was “A (A < 0.3))”.

In the case of `CCN(CC)c1ccc2c(C)c(CCNC(=O)NCc3cccc(C(N)=O)c3)c(=O)oc2c1` [Compound 298, 3-((3-(2-(7-(diethylamino)-4-methyl-2-oxo-2H-chromen-3-yl)ethyl)ureido)methyl)benzamide], the “Protection (fold protection of LC from protease)” value is listed as “B (3 ≤ B < 0.6)”.
